tested on: TMD-8 cells; assay: Cell proliferation assay (CellTiter-Glo), TMD-8; type: cell-based; conditions: 5-day treatment; read-out: TMD8 cells growth IC50
How it was run: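 TMD-8 cells seeded at 5,000–10,000/well, cultured overnight, then exposed to compound (vehicle 0.5% DMSO) for 5 days at 37 °C. Growth read by CellTiter-Glo luminescence; IC50 from log concentration versus % growth inhibition relative to vehicle.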

With `CN(C)C/C=C/C(=O)N1CC(Cn2cc(-c3ccc(Oc4ccccc4)cc3)c3c(N)n[nH]c(=O)c32)C1` [Example 47, 4-amino-1-[[1-[(E)-4-(dimethylamino)but-2-enoyl]azetidin-3-yl]methyl]-3-(4-phenoxyphenyl)-6H-pyrrolo[2,3 d]pyridazin-7-one] as the molecule, how does the IC50 read?
The IC50 was ≤ 10 nM.

How did the IC50 turn out when `CN(C)C/C=C/C(=O)NC1C2CCC1CC(n1cc(-c3ccc(Oc4ccccc4)cc3)c3c(N)n[nH]c(=O)c31)C2` (stereo not drawn) [Example 48, (E)-N-[3-[4-amino-7-oxo-3-(4-phenoxyphenyl)-6H-pyrrolo[2,3 d]pyridazin-1-yl]-8-bicyclo[3.2.1]octanyl]-4-(dimethylamino)but-2-enamide] was run?
Its IC50 is 10 to 1000 nM.

same assay, conditions: Homo sapiens, TMD8, 120 h; 5-day treatment; read-out: TMD8 cells growth IC50

With `CN(C)C/C=C/C(=O)N1CCCC(n2cc(-c3ccc(Oc4ccc(F)cc4)cc3)c3c(N)n[nH]c(=O)c32)C1` (stereo not drawn) [Example 61, 4-amino-1-[1-[(E)-4-(dimethylamino)but-2-enoyl]-3-piperidyl]-3-[4-(4-fluorophenoxy)phenyl]-6H-pyrrolo[2,3-d]pyridazin-7-one] as the molecule, how does the IC50 read?
The IC50 was 10 to 1000 nM.

`CN(C)C/C=C/C(=O)N1CCC[C@@H](n2cc(-c3ccc(Oc4ccccc4)cc3)c3c(N)n[nH]c(=O)c32)C1` [Example 26, 4-amino-1-[(3R)-1-[(E)-4-(dimethylamino)but-2-enoyl]-3-piperidyl]-3-(4-phenoxyphenyl)-6H-pyrrolo[2,3-d]pyridazin-7-one] was tested. Which IC50 did it give?
Its IC50 is ≤ 10 nM.

`CN(C/C=C/C(=O)N1CCC[C@@H](n2cc(-c3ccc(Oc4ccccc4)cc3)c3c(N)n[nH]c(=O)c32)C1)C(=O)OC(C)(C)C` [Example 17] was tested. Which IC50 did it give?
Its IC50 is 10 to 1000 nM.

With `C=CC(=O)N1CCC(F)C(n2cc(-c3ccc(Oc4ccccc4)cc3)c3c(N)n[nH]c(=O)c32)C1` (stereo not drawn) [Example 13, 1-(1-acryloyl-4-fluoropiperidin-3-yl)-4-amino-3-(4-phenoxyphenyl)-1H-pyrrolo[2,3-d]pyridazin-7(6H)-one] as the molecule, how does the IC50 read?
The IC50 was ≤ 10 nM.

How did the IC50 turn out when `C=CC(=O)N[C@H]1CC[C@H](n2cc(-c3ccc(Oc4ccccc4F)cc3)c3c(N)n[nH]c(=O)c32)CC1` [Example 105, N-((1r,4r)-4-(4-amino-3-(4-(2-fluorophenoxy)phenyl)-7-oxo-6,7-dihydro-1H-pyrrolo[2,3-d]pyridazin-1-yl)cyclohexyl)acrylamide] was run?
Its IC50 is 10 to 1000 nM.

`C=CC(=O)N1CC[C@H](n2cc(-c3ccc(Oc4ccccc4)cc3)c3c(N)n[nH]c(=O)c32)C1` [Example 3, 4-amino-3-(4-phenoxyphenyl)-1-[(3S)-1-prop-2-enoylpyrrolidin-3-yl]-6H-pyrrolo[2,3-d]pyridazin-7-one] was tested. Which IC50 did it give?
Its IC50 is 10 to 1000 nM.

With `CC#CC(=O)NC1CCC(n2cc(-c3ccc(Oc4ccccc4F)cc3)c3c(N)n[nH]c(=O)c32)C1` (stereo not drawn) [Example 100, N-(3-(4-amino-3-(4-(2-fluorophenoxy)phenyl)-7-oxo-6,7-dihydro-1H-pyrrolo[2,3-d]pyridazin-1-yl)cyclopentyl)but-2-ynamide] as the molecule, how does the IC50 read?
Its IC50 is ≤ 10 nM.

`C=CC(=O)N1CC[C@@H](n2cc(-c3ccc(Oc4ccccc4)cc3)c3c(N)n[nH]c(=O)c32)C1` [Example 4, 4-amino-3-(4-phenoxyphenyl)-1-[(3R)-1-prop-2-enoylpyrrolidin-3-yl]-6H-pyrrolo[2,3-d]pyridazin-7-one] was tested. Which IC50 did it give?
The IC50 was 10 to 1000 nM.

With `C=CC(=O)Nc1cccc(-n2cc(-c3ccc(OC)c(Cl)c3)c3c(N)n[nH]c(=O)c32)c1` [Example 89, N-(3-(4-amino-3-(3-chloro-4-methoxyphenyl)-7-oxo-6,7-dihydro-1H-pyrrolo[2,3-d]pyridazin-1-yl)phenyl)acrylamide] as the molecule, how does the IC50 read?
Its IC50 is 10 to 1000 nM.

With `COc1cc(-c2cn(C3CCCN(C(=O)/C=C/CN(C)C)C3)c3c(=O)[nH]nc(N)c23)ccc1Oc1cccc(Cl)c1` (stereo not drawn) [Example 69, 4-amino-3-[4-(3-chlorophenoxy)-3-methoxy-phenyl]-1-[1-[(E)-4-(dimethylamino)but-2-enoyl]-3-piperidyl]-6H-pyrrolo[2,3-d]pyridazin-7-one] as the molecule, how does the IC50 read?
Its IC50 is ≤ 10 nM.

With `CN(C)C/C=C/C(=O)N1CCC[C@@H](n2c(F)c(-c3ccc(Oc4ccccc4)cc3)c3c(N)n[nH]c(=O)c32)C1` [Example 82, 4-amino-1-[(3R)-1-[(E)-4-(dimethylamino)but-2-enoyl]-3-piperidyl]-2-fluoro-3-(4-phenoxyphenyl)-6H-pyrrolo[2,3-d]pyridazin-7-one] as the molecule, how does the IC50 read?
The IC50 was ≤ 10 nM.

For `CN(C)C/C=C/C(=O)N1CCCC(n2cc(-c3ccc(Oc4ccccc4)cc3)c3c(N)n[nH]c(=O)c32)C1` (stereo not drawn) [Example 38, 4-amino-1-[1-[(E)-4-(dimethylamino)but-2-enoyl]-3-piperidyl]-3-(4-phenoxyphenyl)-6H-pyrrolo[2,3-d]pyridazin-7-one], which IC50 is on record?
Its IC50 is ≤ 10 nM.

For `CC#CC(=O)N[C@H]1CC[C@@H](n2cc(-c3ccc(Oc4ccccc4F)cc3)c3c(N)n[nH]c(=O)c32)CC1` [Example 102, N-((1s,4s)-4-(4-amino-3-(4-(2-fluorophenoxy)phenyl)-7-oxo-6,7-dihydro-1H-pyrrolo[2,3-d]pyridazin-1-yl)cyclohexyl)but-2-ynamide], which IC50 is on record?
The IC50 was ≤ 10 nM.

`C=CC(=O)N1CCC[C@@H](n2nc(-c3ccc(Oc4ccccc4F)cc3)c3c(N)n[nH]c(=O)c32)C1` [Example 109, (R)-1-(1-acryloylpiperidin-3-yl)-4-amino-3-(4-(2-fluorophenoxy)phenyl)-1H-pyrazolo[3,4-d]pyridazin-7(6H)-one] was tested. Which IC50 did it give?
Its IC50 is ≤ 10 nM.

`C=CC(=O)N1CCC[C@@H](n2cc(-c3ccc(Oc4ccccc4)c(F)c3)c3c(N)n[nH]c(=O)c32)C1` [Example 74, (R)-1-(1-acryloylpiperidin-3-yl)-4-amino-3-(3-fluoro-4-phenoxyphenyl)-1H-pyrrolo[2,3-d]pyridazin-7(6H)-one] was tested. Which IC50 did it give?
Its IC50 is ≤ 10 nM.

With `CN(C)C/C=C/C(=O)N1CCC(n2cc(-c3ccc(Oc4ccccc4)cc3)c3c(N)n[nH]c(=O)c32)CC1` [Example 44, 4-amino-1-[1-[(E)-4-(dimethylamino)but-2-enoyl]-4-piperidyl]-3-(4-phenoxyphenyl)-6H-pyrrolo[2,3-d]pyridazin-7-one] as the molecule, how does the IC50 read?
Its IC50 is 10 to 1000 nM.

Which IC50 does the source give for `CC(C)N(C)C/C=C/C(=O)N1CCC[C@@H](n2cc(-c3ccc(Oc4ccccc4)cc3)c3c(N)n[nH]c(=O)c32)C1` [Example 16, 4-amino-1-[(3R)-1-[(E)-4-[isopropyl(methyl)amino]but-2-enoyl]-3-piperidyl]-3-(4-phenoxyphenyl)-6H-pyrrolo[2,3-d]pyridazin-7-one] here?
Its IC50 is 10 to 1000 nM.

With `C=CC(=O)NC1C2CCC1CC(n1cc(-c3ccc(Oc4ccccc4)cc3)c3c(N)n[nH]c(=O)c31)C2` (stereo not drawn) [Example 15, N-(3-(4-amino-7-oxo-3-(4-phenoxyphenyl)-6,7-dihydro-1H-pyrrolo[2,3-d]pyridazin-1-yl)bicyclo[3.2.1]octan-8-yl)acrylamide] as the molecule, how does the IC50 read?
The IC50 was ≤ 10 nM.

How did the IC50 turn out when `Nc1n[nH]c(=O)c2c1c(-c1ccc(Oc3ccccc3)cc1)cn2[C@@H]1CCCN(C(=O)/C=C/CN2CCOCC2)C1` [Example 35, 4-amino-1-[(3R)-1-[(E)-4-morpholinobut-2-enoyl]-3-piperidyl]-3-(4-phenoxyphenyl)-6H-pyrrolo[2,3-d]pyridazin-7-one] was run?
Its IC50 is ≤ 10 nM.

For `CC#CC(=O)N1CC[C@@H](n2cc(-c3ccc(Oc4ccccc4)cc3)c3c(N)n[nH]c(=O)c32)C1` [Example 97, (R)-4-amino-1-(1-(but-2-ynoyl)pyrrolidin-3-yl)-3-(4-phenoxyphenyl)-1H-pyrrolo[2,3-d]pyridazin-7(6H)-one], which IC50 is on record?
Its IC50 is ≤ 10 nM.

With `C=CC(=O)N[C@H]1CC[C@@H](n2cc(-c3ccc(Oc4ccccc4F)cc3)c3c(N)n[nH]c(=O)c32)CC1` [Example 104, N-((1s,4s)-4-(4-amino-3-(4-(2-fluorophenoxy)phenyl)-7-oxo-6,7-dihydro-1H-pyrrolo[2,3-d]pyridazin-1-yl)cyclohexyl)acrylamide] as the molecule, how does the IC50 read?
Its IC50 is ≤ 10 nM.

`CN(C)C/C=C/C(=O)N1CC(n2cc(-c3ccc(Oc4ccccc4)cc3)c3c(N)n[nH]c(=O)c32)C1` [Example 40, 4-amino-1-[1-[(E)-4-(dimethylamino)but-2-enoyl]azetidin-3-yl]-3-(4-phenoxyphenyl)-6H-pyrrolo[2,3-d]pyridazin-7-one] was tested. Which IC50 did it give?
Its IC50 is 10 to 1000 nM.

Which IC50 does the source give for `C=CC(=O)N1CCCC(n2cc(-c3ccc(OC)c(Cl)c3)c3c(N)n[nH]c(=O)c32)C1` (stereo not drawn) [Example 53, 1-(1-acryloylpiperidin-3-yl)-4-amino-3-(3-chloro-4-methoxyphenyl)-1H-pyrrolo[2,3-d]pyridazin-7(6H)-one] here?
The IC50 was 10 to 1000 nM.

For `C=CC(=O)N1CCC[C@H](n2cc(-c3ccc(Oc4c(F)cccc4F)cc3)c3c(N)n[nH]c(=O)c32)C1` [Example 114, (S)-1-(1-acryloylpiperidin-3-yl)-4-amino-3-(4-(2,6-difluorophenoxy)phenyl)-1H-pyrrolo[2,3-d]pyridazin-7(6H)-one], which IC50 is on record?
Its IC50 is ≤ 10 nM.

Which IC50 does the source give for `CCN(CC)C/C=C/C(=O)N1CCC[C@@H](n2cc(-c3ccc(Oc4ccccc4)cc3)c3c(N)n[nH]c(=O)c32)C1` [Example 27, 4-amino-1-[(3R)-1-[(E)-4-(diethylamino)but-2-enoyl]-3-piperidyl]-3-(4-phenoxyphenyl)-6H-pyrrolo[2,3-d]pyridazin-7-one] here?
The IC50 was ≤ 10 nM.

With `N#CN1CC[C@@H](n2cc(-c3ccc(Oc4ccccc4)cc3)c3c(N)n[nH]c(=O)c32)C1` [Example 107, (R)-3-(4-amino-7-oxo-3-(4-phenoxyphenyl)-6,7-dihydro-1H-pyrrolo[2,3-d]pyridazin-1-yl)pyrrolidine-1-carbonitrile] as the molecule, how does the IC50 read?
The IC50 was 1000 to 100000 nM.

Which IC50 does the source give for `CN(C/C=C/C(=O)N1CCC[C@@H](n2cc(-c3ccc(Oc4ccccc4)cc3)c3c(N)n[nH]c(=O)c32)C1)C1CCC1` [Example 31, 4-amino-1-[(3R)-1-[(E)-4-[cyclobutyl(methyl)amino]but-2-enoyl]-3-piperidyl]-3-(4-phenoxyphenyl)-6H-pyrrolo[2,3-d]pyridazin-7-one] here?
The IC50 was 10 to 1000 nM.

How did the IC50 turn out when `CN(C)C/C=C/C(=O)N1CCC(Cn2cc(-c3ccc(Oc4ccccc4)cc3)c3c(N)n[nH]c(=O)c32)C1` (stereo not drawn) [Example 43, 4-amino-1-[[1-[(E)-4-(dimethylamino)but-2-enoyl]pyrrolidin-3-yl]methyl]-3-(4-phenoxyphenyl)-6H-pyrrolo[2,3-d]pyridazin-7-one] was run?
The IC50 was 10 to 1000 nM.
